Reference: US12344610B2, “APOL1 inhibitors and methods of use” (Maze Therapeutics, Inc., priority 2022, dated 2025)

Legend:
APOL1 G2 = target: T1, APOL1 G2 (Homo sapiens, UniProt O14791, DEL388-389); test: APOL1-mediated calcium transport (calcium influx) assay, HEK T-REx/GCaMP6f/APOL1 G2 K6.3 cells, FLIPR TETRA; assay type: cell-based; conditions: prevention of calcium influx; geometric mean of at least 2 assay runs; † = average of a technical replicate from a single assay run
T1 construct: expressed in transfected cells; host or cells: HEK293 T-REx clonal line stably expressing GCaMP6f (HEK T-REx/GCaMP6f/APOL1 G2 K6.3), doxycycline induced
T1 sequence (O14791 with tags, fused parts or gaps DEL388-389): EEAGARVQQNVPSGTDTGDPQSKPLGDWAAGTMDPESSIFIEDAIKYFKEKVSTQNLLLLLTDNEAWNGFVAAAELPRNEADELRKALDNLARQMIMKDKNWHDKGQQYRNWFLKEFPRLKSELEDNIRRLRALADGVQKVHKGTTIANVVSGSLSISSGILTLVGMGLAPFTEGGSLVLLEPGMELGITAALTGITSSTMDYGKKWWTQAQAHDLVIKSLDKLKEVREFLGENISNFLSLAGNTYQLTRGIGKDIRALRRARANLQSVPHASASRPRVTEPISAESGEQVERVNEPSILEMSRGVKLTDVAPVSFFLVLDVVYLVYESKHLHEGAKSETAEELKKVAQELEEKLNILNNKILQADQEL
Summary of the method: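 A HEK293 T-REx clone stably expressing GCaMP6f had APOL1 G2 induced with doxycycline (20 ng/mL solution added) for 6 h. Cells were then washed into Ca2+-free Tyrode's buffer (pH 7.4) and preincubated with compounds (duplicate 8-point) for 10 min at room temperature. Ca2+ injection to 5 mM final produced FLIPR GCaMP fluorescence, giving AC50 for influx inhibition (geometric mean, ≥2 runs).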

[1] = tested on: HEK293 clonal cell line overexpressing APOL1 G1; test: APOL1 G1 HEK293 cell rescue assay (Example B3); assay type: cell-based; conditions: Homo sapiens, HEK293, HEK293 clonal line overexpressing APOL1 G1; geometric mean of at least 2 runs; † = single run; ¥ = concentration at 50% rescue estimated (no sigmoidal curve)
Summary of the method: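 HEK293 clonal line overexpressing APOL1 G1; EC50 is half-maximal reversal of APOL1-induced cell death. Values are the geometric mean of ≥2 runs on separate days, each run the average of duplicate wells. Where no sigmoidal curve could be fitted, the concentration giving 50% rescue was estimated.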

| SMILES | AC50 (APOL1 G2) [nM] | EC50 [1] [nM] |
| --- | --- | --- |
| CS(C)(=O)=Nc1ccc(OCCN2CCC3(CC2)C(=O)Nc2ccc(C#N)cc23)cc1 [Compound 77, 1′-[2-(4-{[dimethyl(oxo)-λ^6-sulfanylidene]amino}phenoxy)ethyl]-2-oxo-1,2-dihydrospiro[indole-3,4′-piperidine]-5-carbonitrile] | 1600 | > 4760 |
| C[C@]1(O)C[C@@H](N2C(=O)Cc3cc(OCCN4CCC5(CC4)C(=O)Nc4ccc(Cl)cc45)cnc32)C1 [Compound 345, 5-chloro-1′-[2-({2-oxo-1-[(cis)-3-hydroxy-3-methylcyclobutyl]-1H,2H,3H-pyrrolo[2,3-b]pyridin-5-yl}oxy)ethyl]-1,2-dihydrospiro[indole-3,4′-piperidin]-2-one] | 469 | 79 |
| CC(=O)N1CCCc2cc(OCCN3CCC4(CC3)C(=O)Nc3ccc(Cl)cc34)ccc21 [Compound 56, 1′-{2-[(1-acetyl-1,2,3,4-tetrahydroquinolin-6-yl)oxy]ethyl}-5-chloro-1,2-dihydrospiro[indole-3,4′-piperidin]-2-one] | 1010 | 330 |
| CS(=O)(=O)C1(c2ncc(OCCN3CCC4(CC3)C(=O)Nc3ccc(Cl)cc34)cn2)CC1 [Compound 4, 5-chloro-1′-(2-{[2-(1-methanesulfonylcyclopropyl)pyrimidin-5-yl]oxy}ethyl)-1,2-dihydrospiro[indole-3,4′-piperidin]-2-one] | 670 | 177 |
| CN1C(=O)CCc2cc(OCCN3CCC4(CC3)C(=O)Nc3ccc(Cl)cc34)cnc21 [Compound 78, 5-chloro-1′-{2-[(8-methyl-7-oxo-5,6,7,8-tetrahydro-1,8-naphthyridin-3-yl)oxy]ethyl}-1,2-dihydrospiro[indole-3,4′-piperidin]-2-one] | 522 | 128 |
| C[C@]1(O)C[C@@H](n2cnc3cc(OCCN4CCC5(CC4)C(=O)Nc4c(I)cc(Cl)cc45)cc(C(F)(F)F)c32)C1 [Compound 453, 5-chloro-7-iodo-1′-[2-({1-[(cis)-3-hydroxy-3-methylcyclobutyl]-7-(trifluoromethyl)-1H-1,3-benzodiazol-5-yl}oxy)ethyl]-1,2-dihydrospiro[indole-3,4′-piperidin]-2-one] | 935 |  |
| O=C1Nc2ccc(Cl)cc2C12CCN(CCOc1cnc(N3CC4(CC(O)C4)C3)nc1)CC2 [Compound 396, 5-chloro-1′-{2-[(2-{6-hydroxy-2-azaspiro[3.3]heptan-2-yl}pyrimidin-5-yl)oxy]ethyl}-1,2-dihydrospiro[indole-3,4′-piperidin]-2-one] | 531 | 85 |
| CCC1(O)CN(c2ncc(OCCN3CCC4(CC3)C(=O)Nc3ccc(Cl)cc34)cn2)C1 [Compound 397, 5-chloro-1′-(2-{[2-(3-ethyl-3-hydroxyazetidin-1-yl)pyrinlidin-5-yl]oxy}ethyl)-1,2-dihydrospiro[indole-3,4′-piperidin]-2-one] | 416 | 105 |
| C[C@]1(O)C[C@@H](n2cnc3cc(OCCN4CCC5(CC4)C(=O)Nc4ccc(C#N)cc45)cc(C(F)(F)F)c32)C1 [Compound 433, 1′-(2-((1-((cis)-3-hydroxy-3-methylcyclobutyl)-7-(trifluoromethyl)-1H-benzo[d]imidazol-5-yl)oxy)ethyl)-2-oxospiro[indoline-3,4′-piperidine]-5-carbonitrile] | 1300 | 29.6 |
| CC(C)(O)c1ncc(OCCN2CCC3(CC2)C(=O)Nc2ccc(Cl)cc23)cc1C(F)(F)F [Compound 371, 5-chloro-1′-(2-{[6-(2-hydroxypropan-2-yl)-5-(trifluoromethyl)pyridin-3-yl]oxy}ethyl)-1,2-dihydrospiro[indole-3,4′-piperidin]-2-one] | 504 | 28.8 |
| Cc1nc(-c2ccc(OCCN3CCC4(CC3)C(=O)N(C)c3ccccc34)cc2)no1 [Compound 35, 1-methyl-1′-{2-[4-(5-methyl-1,2,4-oxadiazol-3-yl)phenoxy]ethyl}-1,2-dihydrospiro[indole-3,4′-piperidin]-2-one] | 142 | 488 |
| O=C1CCc2cc(OCCN3CCC4(CC3)C(=O)Nc3ccc(Cl)cc34)cnc2N1[C@H]1C[C@@H](CO)C1 (single isomer, unassigned) [Compound 319, 5-chloro-1′-[2-({7-oxo-8-[(cis)-3-(hydroxymethyl)cyclobutyl]-5,6,7,8-tetrahydro-1,8-naphthyridin-3-yl}oxy)ethyl]-1,2-dihydrospiro[indole-3,4′-piperidin]-2-one] | 378 | 118 |
| C[C@]1(O)C[C@@H](n2c(=O)[nH]c3cc(OCCN4CCC5(CC4)C(=O)Nc4ccc(C#N)cc45)cc(C(F)(F)F)c32)C1 [Compound 470, 2-oxo-1′-[2-({2-oxo-1-[(cis)-3-hydroxy-3-methylcyclobutyl]-7-(trifluoromethyl)-2,3-dihydro-1H-1,3-benzodiazol-5-yl}oxy)ethyl]-1,2-dihydrospiro[indole-3,4′-piperidine]-5-carbonitrile] | 1110 | 47.6 |
| C[C@]1(O)C[C@@H](n2c(=O)[nH]c3cc(OCCN4CCC5(CC4)C(=O)Nc4ccc(Cl)cc45)cc(C(F)(F)F)c32)C1 [Compound 468, 5-chloro-1′-[2-({2-oxo-1-[(cis)-3-hydroxy-3-methylcyclobutyl]-7-(trifluoromethyl)-2,3-dihydro-1H-1,3-benzodiazol-5-yl}oxy)ethyl]-1,2-dihydrospiro[indole-3,4′-piperidin]-2-one] | 867 | 14.5 |
| CN(c1ccc(OCCN2CCC3(CC2)C(=O)Nc2ccc(Cl)cc23)cc1)S(C)(=O)=O [Compound 76, N-[4-(2-{5-chloro-2-oxo-1,2-dihydrospiro[indole-3,4′-piperidin]-1′-yl}ethoxy)phenyl]-N-methylmethanesulfonamide] | 678 | 190 |
| C[C@]1(O)C[C@@H](n2c(=O)ccc3cc(OCCN4CCC5(CC4)C(=O)Nc4ccc(Cl)cc45)cnc32)C1 [Compound 323, 5-chloro-1′-[2-({7-oxo-8-[(cis)-3-hydroxy-3-methylcyclobutyl]-7,8-dihydro-1,8-naphthyridin-3-yl}oxy)ethyl]-1,2-dihydrospiro[indole-3,4′-piperidin]-2-one] | 400 | 36.4 |
| C[C@]1(O)C[C@@H](n2nnc3cc(OCCN4CCC5(CC4)C(=O)Nc4ccc(Cl)cc45)cnc32)C1 [Compound 440, 5-chloro-1′-[2-({3-[(cis)-3-hydroxy-3-methylcyclobutyl]-3H-[1,2,3]triazolo[4,5-b]pyridin-6-yl}oxy)ethyl]-1,2-dihydrospiro[indole-3,4′-piperidin]-2-one] | 552 | 139 |
| CS(=O)(=O)c1ccc(OCCN2CCC3(CC2)C(=O)Nc2ccc(Cl)cc23)cn1 [Compound 64, 5-chloro-1′-{2-[(6-methanesulfonylpyridin-3-yl)oxy]ethyl}-1,2-dihydrospiro[indole-3,4′-piperidin]-2-one] | 455 | 516 |
| CC1(O)CC(CN2C(=O)CCc3cc(OCCN4CCC5(CC4)C(=O)Nc4ccc(Cl)cc45)cnc32)C1 (stereo not shown) [Compound 327, 5-chloro-1′-[2-({8-[(3-hydroxy-3-methylcyclobutyl)methyl]-7-oxo-5,6,7,8-tetrahydro-1,8-naphthyridin-3-yl}oxy)ethyl]-1,2-dihydrospiro[indole-3,4′-piperidin]-2-one] | 452 | 84.4 |
| C[C@]1(O)C[C@@H](n2ncc3cc(OCCN4CCC5(CC4)C(=O)Nc4ccc(C#N)cc45)cc(C(F)(F)F)c32)C1 [Compound 465, 2-oxo-1′-[2-({1-[(cis)-3-hydroxy-3-methylcyclobutyl]-7-(trifluoromethyl)-1H-indazol-5-yl}oxy)ethyl]-1,2-dihydrospiro[indole-3,4′-piperidine]-5-carbonitrile] | 748 |  |
| C[C@]1(O)C[C@@H](n2cnc3cc(OCCN4CCC5(CC4)C(=O)Nc4ccc(Cl)cc45)cc(F)c32)C1 [Compound 454, 5-chloro-1′-(2-((7-fluoro-1-((cis)-3-hydroxy-3-methylcyclobutyl)-1H-benzo[d]imidazol-5-yl)oxy)ethyl)spiro[indoline-3,4′-piperidin]-2-one] | 473 |  |
| C[C@]1(O)C[C@@H](n2ncc3cc(OCCN4CCC5(CC4)C(=O)Nc4ccc(Cl)cc45)cc(C(F)(F)F)c32)C1 [Compound 464, 5-chloro-1′-[2-({1-[(cis)-3-hydroxy-3-methylcyclobutyl]-7-(trifluoromethyl)-1H-indazol-5-yl}oxy)ethyl]-1,2-dihydrospiro[indole-3,4′-piperidin]-2-one] | 1190 |  |
